In publication PMC3598725, “Transporter engineering for improved tolerance against alkane biofuels in Saccharomyces cerevisiae” (Biotechnology for Biofuels, 2013):

Experiments:
ABC2 = target: T1, ABC2 (Yarrowia lipolytica, UniProt Q6CBB8); test: intracellular alkane level by GC, S. cerevisiae expressing transporter vs empty plasmid; format: cell-based; settings: 48 h, whole-cell efflux, indirect
T1 construct: gene YALI0_C20265g; full-length, C-terminal 6xHis tag, pYES2 (GAL1) in S. cerevisiae BY4741; 165 kDa on western blot; plasma membrane
T1 sequence (Q6CBB8 1-1469): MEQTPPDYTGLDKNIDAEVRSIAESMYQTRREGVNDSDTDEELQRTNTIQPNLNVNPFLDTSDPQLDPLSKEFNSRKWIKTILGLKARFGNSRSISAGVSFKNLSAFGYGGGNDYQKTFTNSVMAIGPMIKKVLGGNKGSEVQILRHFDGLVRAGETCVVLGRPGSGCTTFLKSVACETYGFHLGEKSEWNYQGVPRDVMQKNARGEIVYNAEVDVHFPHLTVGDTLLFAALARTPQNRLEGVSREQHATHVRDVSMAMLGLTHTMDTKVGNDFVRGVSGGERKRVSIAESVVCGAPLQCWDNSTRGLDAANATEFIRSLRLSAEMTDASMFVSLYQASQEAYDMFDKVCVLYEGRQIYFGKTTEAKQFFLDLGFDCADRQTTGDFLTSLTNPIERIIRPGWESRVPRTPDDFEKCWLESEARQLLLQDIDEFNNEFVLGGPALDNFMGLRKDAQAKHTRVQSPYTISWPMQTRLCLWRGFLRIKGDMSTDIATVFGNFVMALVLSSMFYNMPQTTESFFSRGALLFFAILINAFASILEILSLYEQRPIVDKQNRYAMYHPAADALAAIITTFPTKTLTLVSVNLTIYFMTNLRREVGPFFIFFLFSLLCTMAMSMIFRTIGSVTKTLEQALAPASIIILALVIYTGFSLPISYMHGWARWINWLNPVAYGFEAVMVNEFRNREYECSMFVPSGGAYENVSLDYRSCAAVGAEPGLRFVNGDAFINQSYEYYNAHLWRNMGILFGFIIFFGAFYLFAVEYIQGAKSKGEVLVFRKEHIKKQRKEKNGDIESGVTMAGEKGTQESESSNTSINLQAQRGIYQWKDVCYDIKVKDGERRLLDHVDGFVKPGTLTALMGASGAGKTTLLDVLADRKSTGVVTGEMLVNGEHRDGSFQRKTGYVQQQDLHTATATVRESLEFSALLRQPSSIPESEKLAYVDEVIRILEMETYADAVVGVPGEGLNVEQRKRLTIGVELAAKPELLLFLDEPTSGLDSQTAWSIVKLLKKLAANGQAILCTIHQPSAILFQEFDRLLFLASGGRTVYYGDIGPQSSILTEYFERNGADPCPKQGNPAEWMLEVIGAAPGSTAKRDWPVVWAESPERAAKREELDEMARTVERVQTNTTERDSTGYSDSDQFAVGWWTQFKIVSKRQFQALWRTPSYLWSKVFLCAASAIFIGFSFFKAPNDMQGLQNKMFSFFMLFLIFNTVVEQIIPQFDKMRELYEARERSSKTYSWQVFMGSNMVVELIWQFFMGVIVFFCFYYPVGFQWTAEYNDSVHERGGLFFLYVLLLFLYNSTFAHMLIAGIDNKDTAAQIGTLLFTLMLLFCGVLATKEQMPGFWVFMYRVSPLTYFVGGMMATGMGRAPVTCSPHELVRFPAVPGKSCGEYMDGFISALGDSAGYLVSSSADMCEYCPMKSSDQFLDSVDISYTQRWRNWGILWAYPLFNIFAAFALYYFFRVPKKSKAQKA

ABC3 = target: T2, ABC3 (Yarrowia lipolytica, UniProt Q6CFY4); test: as above; format: cell-based; settings: 48 h, whole-cell efflux, indirect
T2 construct: gene YALI0_B02544g; full-length, C-terminal 6xHis tag, pYES2 (GAL1) in S. cerevisiae BY4741; 167 kDa on western blot; plasma membrane
T2 sequence (Q6CFY4 1-1485): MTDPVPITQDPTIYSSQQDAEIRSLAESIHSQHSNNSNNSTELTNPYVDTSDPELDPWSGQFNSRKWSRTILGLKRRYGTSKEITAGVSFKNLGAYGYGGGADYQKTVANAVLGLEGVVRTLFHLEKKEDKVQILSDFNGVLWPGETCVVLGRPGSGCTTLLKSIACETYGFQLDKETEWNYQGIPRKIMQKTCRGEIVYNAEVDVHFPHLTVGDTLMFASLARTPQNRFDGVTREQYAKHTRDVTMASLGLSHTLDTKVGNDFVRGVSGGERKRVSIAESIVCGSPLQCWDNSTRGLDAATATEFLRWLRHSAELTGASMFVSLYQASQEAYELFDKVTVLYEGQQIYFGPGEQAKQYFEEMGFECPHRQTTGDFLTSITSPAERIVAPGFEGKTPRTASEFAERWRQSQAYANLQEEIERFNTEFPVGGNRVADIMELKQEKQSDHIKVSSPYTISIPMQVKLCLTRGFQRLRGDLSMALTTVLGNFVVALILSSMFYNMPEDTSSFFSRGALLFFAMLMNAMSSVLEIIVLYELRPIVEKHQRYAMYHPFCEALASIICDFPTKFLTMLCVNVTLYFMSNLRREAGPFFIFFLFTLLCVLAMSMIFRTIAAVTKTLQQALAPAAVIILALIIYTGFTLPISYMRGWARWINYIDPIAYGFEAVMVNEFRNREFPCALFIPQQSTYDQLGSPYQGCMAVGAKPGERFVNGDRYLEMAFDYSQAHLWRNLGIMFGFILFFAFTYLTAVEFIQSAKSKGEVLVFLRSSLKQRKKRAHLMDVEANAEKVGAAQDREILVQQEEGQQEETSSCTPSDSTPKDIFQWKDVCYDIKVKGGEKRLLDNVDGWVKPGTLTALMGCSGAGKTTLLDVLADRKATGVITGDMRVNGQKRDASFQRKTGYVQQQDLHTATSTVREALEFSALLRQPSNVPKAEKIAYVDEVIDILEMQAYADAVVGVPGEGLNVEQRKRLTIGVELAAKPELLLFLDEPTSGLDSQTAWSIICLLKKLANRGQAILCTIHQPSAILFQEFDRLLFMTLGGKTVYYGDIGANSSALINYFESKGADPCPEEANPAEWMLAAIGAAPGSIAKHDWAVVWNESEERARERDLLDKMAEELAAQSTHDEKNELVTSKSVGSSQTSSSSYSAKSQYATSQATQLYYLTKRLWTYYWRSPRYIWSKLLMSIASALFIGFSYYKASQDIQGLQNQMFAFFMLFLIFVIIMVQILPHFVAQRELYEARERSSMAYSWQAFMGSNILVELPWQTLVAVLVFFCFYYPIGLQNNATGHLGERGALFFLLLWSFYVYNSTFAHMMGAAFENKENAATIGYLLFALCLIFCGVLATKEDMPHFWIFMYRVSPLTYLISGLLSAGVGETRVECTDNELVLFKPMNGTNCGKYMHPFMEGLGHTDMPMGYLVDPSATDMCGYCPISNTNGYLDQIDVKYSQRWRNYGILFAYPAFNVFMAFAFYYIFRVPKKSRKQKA

| Compound | fold lower intracellular level (ABC2; 20% (vol/vol) undecane) | fold lower intracellular level (ABC3; 20% (vol/vol) undecane) | fold lower intracellular level (ABC2; 0.5% (vol/vol) decane) | fold lower intracellular level (ABC3; 0.5% (vol/vol) decane) |
| --- | --- | --- | --- | --- |
| CCCCCCCCCCC [undecane] | ~ 30 fold | ~ 30 fold |  |  |
| CCCCCCCCCC [decane] |  |  | ~ 5 fold | ~ 5 fold |
